Assay results published in US6632921B1, “Seryl-lysyl-based peptide and peptidomimetic inhibitors of N-myristoyl transferase as anti-infective agents” (G. D Searle & Co, priority 1995, dated 2003).
Each block holds one compound with its values, some of them ahead of it.

Legend:
[1] = molecular target: T1, Candida albicans NMT (Candida albicans, UniProt P30418); test: NMT enzyme inhibition assay (radiochemical HPLC end-point), Candida NMT; format: biochemical
T1 construct: made in house; host or cells: E. coli
T1 sequence (P30418 1-451): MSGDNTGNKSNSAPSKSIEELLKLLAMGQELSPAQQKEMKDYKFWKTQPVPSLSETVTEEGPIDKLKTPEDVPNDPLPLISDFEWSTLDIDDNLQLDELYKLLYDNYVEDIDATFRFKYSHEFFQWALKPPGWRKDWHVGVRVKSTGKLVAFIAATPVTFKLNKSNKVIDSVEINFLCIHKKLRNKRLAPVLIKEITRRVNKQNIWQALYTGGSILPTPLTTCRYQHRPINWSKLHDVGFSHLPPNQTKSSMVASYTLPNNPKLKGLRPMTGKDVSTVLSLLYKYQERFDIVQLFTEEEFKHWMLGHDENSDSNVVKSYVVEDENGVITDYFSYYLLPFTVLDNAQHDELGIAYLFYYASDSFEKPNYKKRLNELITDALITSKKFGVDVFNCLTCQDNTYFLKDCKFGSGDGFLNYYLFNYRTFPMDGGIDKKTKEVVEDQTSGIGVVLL
Method: (§1) Recombinant Candida albicans and human NMTs were expressed and purified from E. coli using previously described protocols. [D. A. Towler et al, Proc. Natl. Acad. Sci. USA, 84, 2707-2712 (1987); R. C. Weigand et al, J. Biol. Chem., 267, 8591-8598 (1992); R. J. Duronio et al, Proc. Natl. Acad. Sci. USA, 89, 4129-4133 (1992)] The ability of compounds to inhibit Candida NMT enzymatic activity was assessed using a radiochemical HPLC end-point assay as described previously for Saccharomyces cerevisiae and human NMTs. [D. Towler et al, Proc. Natl. Acad. Sci. USA, 83, 2812-2816 (1986); W. J. Rocque et al, J. Biol. Chem., 268, 9964-9971 (1991)] The donor substrate [^3H]myristoyl-coenzyme A was enzymatically synthesized from [^3H]myristic acid (50 Ci/mmol, Amersham, Arlington Heights, Ill.) and coenzyme A (Fluka Chemical Corp., Ronkonkoma, N.Y.), and purified as described previously. [W. J. Rocque et al, J. Biol. Chem., 268, 9964-9971 (1991)] The peptide acceptor substrate GNAASARR-NH2 was prepared by solid-phase peptide synthesis using the t-Boc amino acid methodology, followed by HF treatment and reverse-phase HPLC purification. Inhibitor stock solutions were prepared at 22 mM in DMSO; the final concentration of DMSO in each assay was 0.5% (v/v). Inhibition assays were carried out by combining variable amounts of inhibitor or buffer with 0.11 mmoles of [^3H]myristoyl-coenzyme A (1 μCi, 9.09 Ci/mmol) and 2.2 nmoles of GNAASARR-NH2 in a total volume of 60 μL of 0.2 M N-[2-hydroxy-ethyl]piperazine-N′-[2-ethanesulfonic acid], pH 7.4, 2 mM DL-dithiothreitol, 0.2 mM ethylene glycol-bis-(β-aminoethyl ether) N,N,N′,N′-tetraacetic acid, and initiating the reaction by the addition of 50 μL of a Candida NMT solution (7-12 ng/50 μL). Assays with human NMT were identical except that they used 60-75 ng/50 μL of enzyme solution and 0.22 nmoles of GNAASARR-NH2. The reaction was quenched after 10 minutes at 24° C. by the addition of ice-cold MeOH, and the reaction products were separated and measured using C4 reverse-phase HPLC (Vydac 214TP10415; Separations Group, Hesperia, Calif.) and in-line scintillation counting using a Radiomatic A250 (Packard Instruments, Downers Grove, Ill.) and Ecolite(+) (ICN Biomedical, Costa Mesa, Calif.) as the scintillant. Selectivity was determined by calculating the ratio of the IC50 against human NMT to the IC50 against C. albicans NMT.

[2] = molecular target: T2, human NMT (Homo sapiens, UniProt P30419); test: NMT enzyme inhibition assay (radiochemical HPLC end-point), human NMT; format: biochemical; settings: Table V
T2 construct: made in house; host or cells: E. coli
T2 sequence (P30419 1-416 isoform P30419-2): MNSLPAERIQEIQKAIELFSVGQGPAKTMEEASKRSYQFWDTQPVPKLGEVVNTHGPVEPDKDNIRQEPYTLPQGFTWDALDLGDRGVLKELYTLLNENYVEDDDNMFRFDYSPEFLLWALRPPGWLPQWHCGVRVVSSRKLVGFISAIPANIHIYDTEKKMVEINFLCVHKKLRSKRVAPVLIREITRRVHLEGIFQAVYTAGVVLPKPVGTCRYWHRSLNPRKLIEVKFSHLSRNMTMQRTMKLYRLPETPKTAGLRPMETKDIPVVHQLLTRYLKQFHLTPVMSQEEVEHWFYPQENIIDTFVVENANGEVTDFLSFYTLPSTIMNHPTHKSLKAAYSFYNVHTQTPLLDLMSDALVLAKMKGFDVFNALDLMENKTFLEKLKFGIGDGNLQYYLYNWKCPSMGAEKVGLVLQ
Method: as §1, with “Inhibition assays were carried out by combining variable amounts of inhibitor or buffer with 0.11 mmoles of [^3H]myristoyl-coenzyme A (1 μCi, 9.09 Ci/mmol) and 2.2 nmoles of GNAASARR-NH2 in a total volume of 60 μL of 0.2 M N-[2-hydroxy-ethyl]piperazine-N′-[2-ethanesulfonic acid], pH 7.4, 2 mM DL-dithiothreitol, 0.2 mM ethylene glycol-bis-(β-aminoethyl ether) N,N,N′,N′-tetraacetic acid, and initiating the reaction by the addition of 50 μL of a Candida NMT solution (7-12 ng/50 μL). Assays with human NMT were identical except that they used 60-75 ng/50 μL of enzyme solution and 0.22 nmoles of GNAASARR-NH2.” left out

[3] = system: Candida albicans, strain B311; test: Antifungal susceptibility testing, microdilution broth, pH 5.4/30° C./YNB; format: cell-based; settings: B311, 24 hours, Table V (values agree with pH 5.4 assay), read-out: caEC50 24 hours
Method: Antifungal Screens were set up initially against Candida albicans, strain B311, and Cryotococcus neoformans, strain L210425. Both pathogens, (originally from the stock culture collection, Medical mycology research center, Washington university-Barnes hospital), were obtained from Dr.Kobayashi, Prof.of infectious diseases, Washington University, St.Louis, Mo.
All cultures are maintained at 30° C. on Sabouraud's dextrose agar slants and subcultured at monthly intervals to fresh medium. All inocula for susceptibility testing are prepared in yeast nitogen base(YNB, Difco) broth.
A loopful of growth from Sabouraud dextrose agar slant is inoculated into 4 ml of YNB broth media and incubated at 30° C. overnight (18-24 hrs) with constant agitation (Gyratory Shaker, New Brunswick Scientific). Prior to setting up susceptibility testing, the organisms are counted in a hemocytometer, and diluted as needed into assay media.
1) (Assay at DH 5.4/30° C. Incubation/YNB Media).
Antifungal assays were carried out initially by a modification of the method published by Jones, et. al; (1), and communicated to Searle by Dr. Kobayashi, Washington University. [R. N. Jones et al, Manual of Clinical Microbiology, 4th ed., (1985)]
The antifungal susceptibility testing consists of a microdilution broth procedure performed in 96 well microtiter plates (Costar, cat#3799). Briefly, test compounds from a 20 mM stock solution in DMSO are diluted into sterile, deionized water (final DMSO concentration not exceeding 1%), to yield 2× the desired concentration (100 uM, 10 uM and 1 uM for an initial screen, or a selected concentration range in serial 2 fold dilutions for EC50 determination). One hundred microliters (100 ul) of each concentration is dispensed into triplicate wells of a 96 well microtiter plate. Appropriate dilutions of a suspension of C.albicans (1×10^6 cells/ml) in 2× YNB is distributed into each of the wells, including growth control wells containing no test compound as well as control wells with 0.5% DMSO. Amphotericin B at 0.05, 1 and 5 ug/ml is included in each assay plate as a positive control. The plates are incubated at 30° C. and cell growth is scored by reading the absorbance at 590 nm on an Elisa plate reader(Dynatech, MR.5000).

[4] = system: a variety of fungal species, including C. albicans; settings: Sabouraud dextrose agar; series of n-alkoxyacetic acids; cited from earlier work
[5] = system: HIV-1; settings: acutely and chronically infected human T-lymphocyte cell lines, doses which do not cause cellular toxicity; cited from earlier work

IC50 ([1]; Table V, read-out: IC50 caNMT): 0.4 µM | Selectivity ([1]; ratio of IC50 against human NMT to IC50 against C. albicans NMT): 2200 | IC50 [2]: 850 µM | EC50 [3]: 33 µM
SMILES: Cc1nccn1CCCCc1ccc(C(C)C(=O)N[C@@H](CO)C(=O)N[C@@H](CCCCN)C(=O)N[C@@H](CC2CCCCC2)C(=O)O)cc1 (mixture of isomers) [Example 1, L-Alanine, 3-cyclohexyl-N-[N^2-[N-[2-[4-[4-(2-methyl-1H-imidazol-1-yl)butyl]phenyl]oxopropyl]-L-seryl]-L-lysyl]-, (±), bis-trifluoroacetate]

SMILES: CCCCCCCCCCCOCC(=O)O [3-oxatetradecanoic acid]
effects on the growth of fungal species [4]: inhibiting growth

SMILES: CCCCCCCCOCC(=O)O [3-oxaundecanoic acid]
effects on the growth of fungal species [4]: broadest spectrum and highest potency

SMILES: COCCCCCCCCCCCC(=O)O [13-oxatetradecanoic acid]
inhibition of HIV-1 replication [5]: inhibits HIV-1 replication
